# Article PMC3224213, “Bacterial membrane activity of α-peptide/β-peptoid chimeras: Influence of amino acid composition and chain length on the activity against different bacterial strains” (BMC Microbiology, 2011)
# Experiments:
# [1] = system: twelve food-borne and clinical bacterial strains; type: cell-based; details: ratio of MIC values, Table 2
# Method: Initial activity experiments were carried out with twelve strains from seven bacterial species representing common laboratory strains and clinical strains derived from both food-borne and nosocomial infections (Table 1). Stock cultures were stored at -80°C in 4% (w/v) glycerol, 0.5% (w/v) glucose, 2% (w/v) skimmed milk powder and 3% (w/v) tryptone soy powder. All experiments were carried out with bacteria incubated for one night (i.e. approximately 18 hours) at 37°C. Experiments were performed in cation-adjusted Mueller Hinton II broth (MHB) (Becton Dickinson 212322) adjusted to pH 7.4 or Tryptone Soy Broth (TSB) (Oxoid CM0129) for the ATP leakage assays. Brain Heart Infusion (BHI) (CM1135) with agar (VWR 20768.292) 1.5% as gelling agent was used throughout for colony plating.
# The Minimum Inhibitory Concentration (MIC) of the chimeras was determined against the spectrum of bacteria using the microdilution method according to guidelines of the Clinical and Laboratory Standards Institute (CLSI). Chimera 1:2 serial dilutions were prepared from 1,024 μg/mL stock solutions to give a final range of 512-0.5 μg/mL in the wells. This corresponds to a final range of 144 to 0.14 μM for the heaviest chimera (i.e. chimera 4c) and of 282 to 0.27 μM for the lightest chimera (i.e. chimera 4a). Colonies grown overnight (i.e. approximately 18 hours) on BHI agar were suspended in 0.9% saline to give a turbidity of 0.13 at OD546 (approximately 1 × 10^8 CFU/mL), and then diluted in MHB pH 7.4 to a final concentration of 5 × 10^5 CFU/mL in each well. Following CLSI guidelines the media for testing of Listeria monocytogenes strains were supplemented with 2.5% lysed horse blood. Polypropylene plates (Nunc 442587) were used to minimize peptide binding and incubation time was 18-20 hours at 37°C. MIC was determined in a minimum of two technical replicates as the lowest concentration of the peptide analogue where no visible growth was found. The Minimum Bactericidal Concentration (MBC) was determined by plating 10 μL of the suspension from the first three wells without growth on BHI agar and incubating these for 24 hours at 37°C. MBC was the lowest concentration at which a 99.9% reduction in CFU/mL was observed. Activity is expressed in μmol/L to enable a direct comparison of analogues with different length (= size).
# S. aureus = assay: ATP leakage bioluminescence assay; type: cell-based, Staphylococcus aureus; details: 1000 μg/mL chimera
# Method: (§1) Pore formation as caused by peptide addition was determined by measuring ATP leakage from the bacterial cell using a bioluminescence assay. The assay was used to estimate differences between sub-typical chimeras 1, 2 and 3 on S. aureus and S. marcescens and to evaluate the effect of chain length of mixed type chimeras 4a, 4b and 4c on S. aureus. In brief, bacteria were grown in TSB at 37°C for 24 hours and then re-inoculated in TSB at 37°C for 6-8 hours until an absorbance at 546 nm of 2.5 for S. aureus and 2.0 for S. marcescens and then harvested (10 min at 2,000 × g). The bacteria were grown to a high absorbance since a high concentration of bacteria was necessary in order to get a measurable response in the ATP leakage assay. Cells were washed once in 50 mM potassium phosphate buffer (pH 7.0) and once in 50 mM HEPES buffer (pH 7.0), before the pellet was resuspended in HEPES buffer to an OD546 ~ 10, and then stored on ice. Before chimera addition bacteria were pre-incubated with 0.2% (w/v) glucose to energize the cells. In general a chimera dose of 1000 μg/mL (corresponding to 280-552 μM for all chimeras) was used for all assays; however, for determining dose response curves additional doses of 100 (28-55 μM), 250 (71-137 μM) and 500 (140-276 μM) μg/mL were tested, and only the immediate release was noted. Total ATP and extracellular ATP were determined with a luminometer […]. Intracellular volumes of S. aureus and S. marcescens (0.85 μm^3 and 1.7 μm^3, respectively) were subtracted from the total volume before calculating the extracellular ATP concentration; the intracellular ATP concentration could then be calculated from this and the total ATP. ATP leakage kinetics was determined on a bacterial suspension prepared as above. Samples were taken at time 0, 5, 10, 20, 30 and 60 minutes and viable counts determined. Both the ATP leakage assay and killing kinetics performed under the same assay conditions were performed in two independent experiments.
# S. marcescens = assay: ATP leakage bioluminescence assay; type: cell-based, Serratia marcescens; details: 1000 μg/mL chimera
# Method: as §1
# [2] = parameters: method as in PMID 18675778; details: unilamellar liposomes mimicking human cell membranes; ref [24]; cited from earlier work
smiles,measurement,setting,value
CC(=O)N[C@@H](CCCCN)C(=O)N(CCC(=O)N[C@@H](CCCCN)C(=O)N(CCC(=O)N[C@@H](CCCCN)C(=O)N(CCC(=O)N[C@@H](CCCCN)C(=O)N(CCC(=O)N[C@@H](CCCCN)C(=O)N(CCC(=O)N[C@@H](CCCCN)C(=O)N(CCC(=O)N[C@@H](CCCCN)C(=O)N(CCC(=O)N[C@@H](CCCCN)C(=O)N(CCC(N)=O)[C@@H](C)c1ccccc1)[C@@H](C)c1ccccc1)[C@@H](C)c1ccccc1)[C@@H](C)c1ccccc1)[C@@H](C)c1ccccc1)[C@@H](C)c1ccccc1)[C@@H](C)c1ccccc1)[C@@H](C)c1ccccc1 [Chimera 3],lower activity compared to chimera 2 against E.coli,[1],2-7 fold
same,lower activity compared to chimera 2 against S. aureus and K. pneumoniae,[1],6-13 fold
same,ATP leakage (in words),S. aureus,caused leakage of ATP
same,ATP leakage (in words),S. marcescens,caused leakage of ATP
same,ability to induce calcein leakage,[2],positive response
